Each compound was assayed against T1, cathepsin S (Homo sapiens, UniProt P25774) (assay: Cathepsin S enzyme inhibition in vitro (kinetic fluorescence assay)). Conditions: Ki(cathepsin S)/Ki(calpain) ratio.
T1 construct: purchased Calbiochem 219343; host or cells: E. coli
Format: biochemical
Experimental: (§1) Testing for blockade of the corresponding enzymic activities was carried out by means of kinetic fluorescence assays (excitation 390 nm, emission 460 nm).
(§2) Apparent Ki values were calculated from the experimentally determined IC50 values by the Cheng-Prussoff relation assuming a reversible competitive enzyme inhibition. The Km values of the substrates used under the assay conditions indicated above were: 90 μM (Z-Phe-Arg-AMC, cathepsin B), 10 μM (Z-Gly-Pro-Arg-AMC, cathepsin K), 2 μM (Z-Phe-Arg-AMC, cathepsin L), and 30 μM (Z-Val-Val-Arg-AMC, cathepsin S).
(§3) The indicated Ki values are averages of the inhibition constants calculated on the basis of 2 to 4 independent dose-effect plots.
(§4) • 1. Calpain I: • 20 nM calpain-I—isolated from human erythrocytes (Calbiochem #208713), 100 μM Suc-Leu-Tyr-AMC (Bachem #1-1355) as substrate in buffer with 62 mM imidazole, 0.3 mM CaCl2, 0.10% CHAPS, 0.05% BSA, 1 mM DTT at pH 7.3 and room temperature. • 2. Cathepsin B: • 0.25 nM cathepsin B—isolated from human liver (Calbiochem #219362), 100 μM Z-Phe-Arg-AMC (Bachem #1-1160) as substrate 50 mM MES, 2 mM EDTA, 0.05% Brij 35, 2.5 mM L-cysteine, pH 6.0, room temperature. • 3. Cathepsin K: • 3 nM cathepsin K—activated from recombinant human procathepsin K from E. coli (Calbiochem #342001), 10 μM Z-Gly-Pro-Arg-AMC (Biomol #P-142) as substrate in 50 mM MES, 2 mM EDTA, 0.05% Brij 35, 2.5 mM L-cysteine, pH 6.0, room temperature. • 4. Cathepsin L: • 1 nM cathepsin L—isolated from human liver (Calbiochem #219402), 2 μM Z-Phe-Arg-AMC (Bachem #1-1160) as substrate in 50 mM MES, 2 mM EDTA, 0.05% Brij 35, 2.5 mM L-cysteine, pH 6.0, room temperature. • 5. Cathepsin S: • 0.5 nM recombinant human cathepsin S from E. coli (Calbiochem #219343), 20 μM Z-Val-Val-Arg-AMC (Bachem #1-1540) as substrate in 50 mM MES, 2 mM EDTA, 0.05% Brij 35, 2.5 mM L-cysteine, pH 6.0, room temperature.

T1 sequence (P25774 115-331): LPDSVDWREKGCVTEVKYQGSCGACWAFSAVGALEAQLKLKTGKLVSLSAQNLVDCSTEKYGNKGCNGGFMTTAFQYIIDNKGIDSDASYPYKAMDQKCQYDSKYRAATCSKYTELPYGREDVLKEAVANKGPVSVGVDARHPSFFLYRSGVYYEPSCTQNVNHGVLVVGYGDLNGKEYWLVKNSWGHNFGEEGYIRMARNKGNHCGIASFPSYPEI

| Structure (SMILES) | Sel cat. S |
| --- | --- |
| CS(=O)(=O)NCc1cn(-c2ncccc2C(=O)NC(Cc2ccccc2)C(=O)C(N)=O)nc1-c1ccc(F)cc1 (centres unmarked) [Example 187, N-[3-Amino-2,3-dioxo-1-(phenylmethyl)propyl]-2-[3-(4-fluorophenyl)-4-{[(methylsulfonyl)amino]methyl}-1H-pyrazol-1-yl]pyridine-3-carboxamide] | ++ (++ means a Ki(cathepsin S)/Ki(calpain) ratio of ≧100) |
| CCCCC(NC(=O)c1cccnc1-n1ccc(-c2ccc(N(CC)CC)cc2)n1)C(=O)C(N)=O (centres unmarked) [Example 47, N-{1-[Amino(oxo)acetyl]pentyl}-2-{3-[4-(diethylamino)phenyl]-1H-pyrazol-1-yl}nicotinamide] | ++ (++ means a Ki(cathepsin S)/Ki(calpain) ratio of ≧100) |
| NC(=O)C(=O)C(Cc1ccccc1)NC(=O)c1ccccc1-n1ccc(-c2ccccc2)n1 (centres unmarked) [Example 106, N-[3-Amino-2,3-dioxo-1-(phenylmethyl)propyl]-2-(3-phenyl-1H-pyrazol-1-yl)benzamide] | ++ (++ means a Ki(cathepsin S)/Ki(calpain) ratio of ≧100) |
| NC(=O)C(=O)C(Cc1ccccc1)NC(=O)c1cccnc1-n1ccc(-c2ccncc2)n1 (centres unmarked) [Example 65, N-(3-Amino-1-benzyl-2,3-dioxopropyl)-2-(3-pyridin-4-yl-1H-pyrazol-1-yl)nicotinamide] | ++ (++ means a Ki(cathepsin S)/Ki(calpain) ratio of ≧100) |
| NC(=O)C(=O)C(Cc1ccccc1)NC(=O)c1cccnc1-n1ccc(-c2ccc(Cl)cc2)n1 (centres unmarked) [Example 39, N-(3-Amino-1-benzyl-2,3-dioxopropyl)-2-[3-(4-chlorophenyl)-1H-pyrazol-1-yl]nicotinamide] | ++ (++ means a Ki(cathepsin S)/Ki(calpain) ratio of ≧100) |
| NC(=O)C(=O)C(Cc1ccccc1)NC(=O)c1cccnc1-n1cnc(-c2ccc(N3CCOCC3)cc2)c1 (centres unmarked) [Example 14, N-(3-Amino-1-benzyl-2,3-dioxopropyl)-2-[4-(4-morpholin-4-ylphenyl)-1H-imidazol-1-yl]nicotinamide] | ++ (++ means a Ki(cathepsin S)/Ki(calpain) ratio of ≧100) |
| CCN(CC)c1ccc(-c2ccn(-c3ncccc3C(=O)NC(Cc3ccccc3)C(=O)C(N)=O)n2)cc1 (centres unmarked) [Example 42, N-(3-Amino-1-benzyl-2,3-dioxopropyl)-2-{3-[4-(diethylamino)phenyl]-1H-pyrazol-1-yl}nicotinamide] | ++ (++ means a Ki(cathepsin S)/Ki(calpain) ratio of ≧100) |
| CCCCC(NC(=O)c1cccnc1-n1ccc(-c2ccc(CN3CCOCC3)cc2)n1)C(=O)C(N)=O (centres unmarked) [Example 45, N-{1-[Amino(oxo)acetyl]pentyl}-2-{3-[4-(morpholin-4-ylmethyl)phenyl]-1H-pyrazol-1-yl}nicotinamide] | + (+ means 50≦Ki(cathepsin S)/Ki(calpain)<100) |
| CCCCC(NC(=O)c1cccnc1-n1ccc(-c2ccc(CN(CC)CC)cc2)n1)C(=O)C(N)=O (centres unmarked) [Example 44, N-{1-[Amino(oxo)acetyl]pentyl}-2-(3-{4-[(diethylamino)methyl]phenyl}-1H-pyrazol-1-yl)nicotinamide] | + (+ means 50≦Ki(cathepsin S)/Ki(calpain)<100) |
| NC(=O)C(=O)C(Cc1ccccc1)NC(=O)c1cccnc1-n1cc(CCN2CCOCC2)c(-c2ccc(F)cc2)n1 (centres unmarked) [Example 165, N-[3-Amino-2,3-dioxo-1-(phenylmethyl)propyl]-2-[3-(4-fluorophenyl)-4-(2-morpholin-4-ylethyl)-1H-pyrazol-1-yl]pyridine-3-carboxamide] | ++ (++ means a Ki(cathepsin S)/Ki(calpain) ratio of ≧100) |
| Cl.NC(=O)C(=O)C(Cc1ccccc1)NC(=O)c1cccnc1-n1ccc(-c2cccc(CN3CCOCC3)c2)n1 (centres unmarked) [Example 52, N-(3-Amino-1-benzyl-2,3-dioxopropyl)-2-{3-[3-(morpholin-4-ylmethyl)phenyl]-1H-pyrazol-1-yl}nicotinamide hydrochloride] | ++ (++ means a Ki(cathepsin S)/Ki(calpain) ratio of ≧100) |
| CCN(CC)Cc1ccc(-c2ccn(-c3ncccc3C(=O)NC(Cc3ccccc3)C(=O)C(N)=O)n2)cc1.Cl (centres unmarked) [Example 43, N-(3-Amino-1-benzyl-2,3-dioxopropyl)-2-(3-{4-[(diethylamino)methyl]phenyl}-1H-pyrazol-1-yl)nicotinamide hydrochloride] | ++ (++ means a Ki(cathepsin S)/Ki(calpain) ratio of ≧100) |
| CN(C)Cc1cn(-c2ncccc2C(=O)NC(Cc2ccccc2)C(=O)C(N)=O)nc1-c1cccc(C(F)(F)F)c1 (centres unmarked) [Example 176, N-[3-Amino-2,3-dioxo-1-(phenylmethyl)propyl]-2-{4-[(dimethylamino)methyl]-3-[3-(trifluoromethyl)phenyl]-1H-pyrazol-1-yl}pyridine-3-carboxamide] | ++ (++ means a Ki(cathepsin S)/Ki(calpain) ratio of ≧100) |
| NC(=O)C(=O)C(Cc1ccccc1)NC(=O)c1cccnc1-n1cc(CN2CCCC2)c(-c2cccc(C(F)(F)F)c2)n1 (centres unmarked) [Example 178, N-[3-Amino-2,3-dioxo-1-(phenylmethyl)propyl]-2-{4-(pyrrolidin-1-ylmethyl)-3-[3-(trifluoronnethyl)phenyl]-1H-pyrazol-1-yl}pyridine-3-carboxamide] | ++ (++ means a Ki(cathepsin S)/Ki(calpain) ratio of ≧100) |
| NC(=O)C(=O)C(Cc1ccccc1)NC(=O)c1cccnc1-n1cc(-c2ccccc2F)cn1 (centres unmarked) [Example 104, N-[3-Amino-2,3-dioxo-1-(phenylmethyl)propyl]-2-[4-(2-fluorophenyl)-1H-pyrazol-1-yl]pyridine-3-carboxamide] | + (+ means 50≦Ki(cathepsin S)/Ki(calpain)<100) |
| NC(=O)C(=O)C(Cc1ccccc1)NC(=O)c1cccnc1-n1ccc(-c2ccc(-n3ccnc3)cc2)n1 (centres unmarked) [Example 101, N-[3-Amino-2,3-dioxo-1-(phenylmethyl)propyl]-2-{3-[4-(1H-imidazol-1-yl)phenyl]-1H-pyrazol-1-yl}pyridine-3-carboxamide] | ++ (++ means a Ki(cathepsin S)/Ki(calpain) ratio of ≧100) |
| NC(=O)C(=O)C(Cc1ccccc1)NC(=O)c1cccnc1-n1cc(CN2CCOCC2)c(-c2cccc(C(F)(F)F)c2)n1 (centres unmarked) [Example 177, N-[3-Amino-2,3-dioxo-1-(phenylmethyl)propyl]-2-{4-(morpholin-4-ylmethyl)-3-[3-(trifluoromethyl)phenyl]-1H-pyrazol-1-yl}pyridine-3-carboxamide] | ++ (++ means a Ki(cathepsin S)/Ki(calpain) ratio of ≧100) |
| CCCCC(NC(=O)c1cccnc1-n1ccc(-c2ccccc2)n1)C(=O)C(N)=O (centres unmarked) [Example 6, N-{1-[Amino(oxo)acetyl]pentyl}-2-(3-phenyl-1H-pyrazol-1-yl)nicotinamide] | + (+ means 50≦Ki(cathepsin S)/Ki(calpain)<100) |
| NC(=O)C(=O)C(Cc1ccccc1)NC(=O)c1cccnc1-n1ccc(-c2ccc(CN3CCOCC3)cc2)n1 (centres unmarked) [Example 46, N-(3-Amino-1-benzyl-2,3-dioxopropyl)-2-{3-[4-(morpholin-4-ylmethyl)phenyl]-1H-pyrazol-1-yl}nicotinamide] | ++ (++ means a Ki(cathepsin S)/Ki(calpain) ratio of ≧100) |

The compounds below were run against T2, cathepsin L (Homo sapiens, UniProt P07711) (assay: Cathepsin L enzyme inhibition in vitro (kinetic fluorescence assay)). Conditions: Ki(cathepsin L)/Ki(calpain) ratio.
T2 construct: cathepsin L—isolated from human liver; purchased Calbiochem 219402; host or cells: human liver (tissue isolate)
T2 sequence (P07711 114-333): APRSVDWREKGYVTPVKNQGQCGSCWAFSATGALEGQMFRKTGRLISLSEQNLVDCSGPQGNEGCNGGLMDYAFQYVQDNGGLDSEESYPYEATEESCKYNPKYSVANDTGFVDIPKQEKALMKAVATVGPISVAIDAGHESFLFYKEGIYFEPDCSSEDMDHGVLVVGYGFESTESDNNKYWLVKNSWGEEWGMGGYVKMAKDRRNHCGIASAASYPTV
Format: biochemical
Experimental: as §1, §2, §3, §4

| Structure (SMILES) | Sel cat. L |
| --- | --- |
| CS(=O)(=O)NCc1cn(-c2ncccc2C(=O)NC(Cc2ccccc2)C(=O)C(N)=O)nc1-c1ccc(F)cc1 (centres unmarked) [Example 187, N-[3-Amino-2,3-dioxo-1-(phenylmethyl)propyl]-2-[3-(4-fluorophenyl)-4-{[(methylsulfonyl)amino]methyl}-1H-pyrazol-1-yl]pyridine-3-carboxamide] | + (+ means 30≦Ki(cathepsin L)/Ki(calpain)<50) |
| COCc1cn(-c2ncccc2C(=O)NC(Cc2ccccc2)C(=O)C(N)=O)nc1-c1ccc(F)cc1 (centres unmarked) [Example 170, N-[3-Amino-2,3-dioxo-1-(phenylmethyl)propyl]-2-{3-(4-fluorophenyl)-4-[(methyloxy)methyl]-1H-pyrazol-1-yl}pyridine-3-carboxamide] | + (+ means 30≦Ki(cathepsin L)/Ki(calpain)<50) |
| NC(=O)C(=O)C(Cc1ccccc1)NC(=O)c1ccccc1-n1ccc(-c2ccccc2)n1 (centres unmarked) [Example 106, N-[3-Amino-2,3-dioxo-1-(phenylmethyl)propyl]-2-(3-phenyl-1H-pyrazol-1-yl)benzamide] | + (+ means 30≦Ki(cathepsin L)/Ki(calpain)<50) |
| Cc1cn(-c2ncccc2C(=O)NC(Cc2ccccc2)C(=O)C(N)=O)nc1-c1ccccc1 (centres unmarked) [Example 86, N-[3-Amino-2,3-dioxo-1-(phenylmethyl)propyl]-2-(4-methyl-3-phenyl-1H-pyrazol-1-yl)pyridine-3-carboxamide] | ++ (++ means a Ki(cathepsin L)/Ki(calpain) ratio of ≧50) |
| CCCCC(NC(=O)c1cc(Cl)cnc1-n1cnc(-c2ccccc2)c1)C(=O)C(N)=O.Cl (centres unmarked) [Example 24, N-{1-[Amino(oxo)acetyl]pentyl}-5-chloro-2-(4-phenyl-1H-imidazol-1-yl)nicotinamide hydrochloride] | + (+ means 30≦Ki(cathepsin L)/Ki(calpain)<50) |
| NC(=O)C(=O)C(Cc1ccccc1)NC(=O)c1cccnc1-n1ccc(-c2ccc(Cl)cc2)n1 (centres unmarked) [Example 39, N-(3-Amino-1-benzyl-2,3-dioxopropyl)-2-[3-(4-chlorophenyl)-1H-pyrazol-1-yl]nicotinamide] | ++ (++ means a Ki(cathepsin L)/Ki(calpain) ratio of ≧50) |
| CCCCC(NC(=O)c1cccnc1-n1cnc(-c2ccccc2)c1)C(=O)C(N)=O (centres unmarked) [Example 2, N-{1-[Amino(oxo)acetyl]pentyl}-2-(4-phenyl-1H-imidazol-1-yl)nicotinamide] | ++ (++ means a Ki(cathepsin L)/Ki(calpain) ratio of ≧50) |

— patent US9139557B2, “Carboxamide compounds and their use as calpain inhibitors” (Abbott GmbH & Co. KG, priority 2006, dated 2015)
